Active and inactive are the calls of the source. The rule behind the calls is not given here.
What was measured:
K562 [1] = assay: Growth inhibition of human K562 cells incubated for 48 hrs by sulforhodamine B assay; format: functional; settings: K562, 48 h
MOLT-4 = assay: Growth inhibition of human MOLT4 cells incubated for 48 hrs by sulforhodamine B assay; format: functional; settings: MOLT-4, 48 h
RPMI-8226 = assay: Growth inhibition of human RPMI8226 cells incubated for 48 hrs by sulforhodamine B assay; format: functional; settings: RPMI-8226, 48 h
HOP-92 = assay: Growth inhibition of human HOP92 cells incubated for 48 hrs by sulforhodamine B assay; format: functional; settings: HOP-92, 48 h
NCI-H226 = assay: Growth inhibition of human NCI-H226 cells incubated for 48 hrs by sulforhodamine B assay; format: functional; settings: NCI-H226, 48 h
NCI-H460 = assay: Growth inhibition of human NCI-H460 cells incubated for 48 hrs by sulforhodamine B assay; format: functional; settings: NCI-H460, 48 h
COLO 205 = assay: Growth inhibition of human COLO205 cells incubated for 48 hrs by sulforhodamine B assay; format: functional; settings: COLO 205, 48 h
HCT-15 = assay: Growth inhibition of human HCT15 cells incubated for 48 hrs by sulforhodamine B assay; format: functional; settings: HCT-15, 48 h
SW-620 = assay: Growth inhibition of human SW620 cells incubated for 48 hrs by sulforhodamine B assay; format: functional; settings: SW-620, 48 h
SF-539 = assay: Growth inhibition of human SF539 cells incubated for 48 hrs by sulforhodamine B assay; format: functional; settings: SF-539, 48 h
SNB-19 = assay: Growth inhibition of human SNB19 cells incubated for 48 hrs by sulforhodamine B assay; format: functional; settings: SNB-19, 48 h
LOX IMVI = assay: Growth inhibition of human LOXIMVI cells incubated for 48 hrs by sulforhodamine B assay; format: functional
MDA-MB-435 = assay: Growth inhibition of human MDA-MB-435 cells incubated for 48 hrs by sulforhodamine B assay; format: functional; settings: MDA-MB-435, 48 h
SK-MEL-2 = assay: Growth inhibition of human SK-MEL-2 cells incubated for 48 hrs by sulforhodamine B assay; format: functional; settings: SK-MEL-2, 48 h
SK-MEL-28 = assay: Growth inhibition of human SK-MEL-28 cells incubated for 48 hrs by sulforhodamine B assay; format: functional; settings: SK-MEL-28, 48 h
IGROV-1 = assay: Growth inhibition of human IGROV1 cells incubated for 48 hrs by sulforhodamine B assay; format: functional; settings: IGROV-1, 48 h
OVCAR-4 = assay: Growth inhibition of human OVCAR4 cells incubated for 48 hrs by sulforhodamine B assay; format: functional; settings: OVCAR-4, 48 h
SK-OV-3 = assay: Growth inhibition of human SKOV3 cells incubated for 48 hrs by sulforhodamine B assay; format: functional; settings: SK-OV-3, 48 h
A498 = assay: Growth inhibition of human A498 cells incubated for 48 hrs by sulforhodamine B assay; format: functional; settings: A498, 48 h
ACHN = assay: Growth inhibition of human ACHN cells incubated for 48 hrs by sulforhodamine B assay; format: functional
Hs-578T = assay: Growth inhibition of human Hs578T cells incubated for 48 hrs by sulforhodamine B assay; format: functional
T47D = assay: Growth inhibition of human T47D cells incubated for 48 hrs by sulforhodamine B assay; format: functional
MDA-MB-468 = assay: Growth inhibition of human MDA-MB-468 cells incubated for 48 hrs by sulforhodamine B assay; format: functional; settings: MDA-MB-468, 48 h
K562 [2] = assay: Growth inhibition of human K562 cells at 10^-5 M incubated for 48 hrs by sulforhodamine B assay relative to control; format: functional; settings: K562, 48 h, read-out: GI
UO-31 = assay: Growth inhibition of human UO31 cells at 10^-5 M incubated for 48 hrs by sulforhodamine B assay relative to control; format: functional; settings: UO-31, 48 h, read-out: GI
HT-29 = assay: Growth inhibition of human HT-29 cells at 10^-5 M incubated for 48 hrs by sulforhodamine B assay relative to control; format: functional; settings: HT-29, 48 h, read-out: GI
[3] = tested on: Panel NCI-60 (60 carcinoma cell lines); assay: Growth inhibition of human NCI60 cells at incubated for 48 hrs by sulforhodamine B assay; format: functional
C6 = assay: Induction of morphological changes in rat C6 cells assessed as increase in total length of processes measured after 24 hrs by inverted microscopy analysis relative to control; format: functional
[4] = target: T1, Dihydrofolate reductase (Homo sapiens) (UniProt P00374); assay: Binding affinity to human dihydrofolate reductase at 5 uM assessed as decrease in absorption band by UV-visible spectroscopic analysis
T1 sequence (whole entry): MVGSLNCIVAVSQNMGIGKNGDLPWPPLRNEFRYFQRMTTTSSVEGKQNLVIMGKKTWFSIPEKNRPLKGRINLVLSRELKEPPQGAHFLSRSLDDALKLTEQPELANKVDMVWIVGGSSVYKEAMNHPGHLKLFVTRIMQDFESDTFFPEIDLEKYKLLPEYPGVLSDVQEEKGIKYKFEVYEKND

[5] = read-out: pLC50 (the source's name) (converted)
[6] = read-out: LC50 (the source's name)

## O=C(OC[C@@H]1CO1)c1cccc2c(=O)c3ccccc3[nH]c12
K562 [1]
  GI50: 2.19 µM
K562 [1]; [5]
  CC50: > 100 µM
K562 [1]; read-out: pTGI
  TGI: > 100 µM
MOLT-4; read-out: GI50
  GI50: 0.28 µM
MOLT-4; [6]
  CC50: > 100 µM
MOLT-4; read-out: pGI50 (converted)
  GI50: 0.288 µM
MOLT-4; [5]
  CC50: > 100 µM
MOLT-4; read-out: pTGI (converted)
  TGI: 2.34 µM
RPMI-8226
  GI50: 1.95 µM
RPMI-8226; [5]
  CC50: > 100 µM
RPMI-8226; read-out: pTGI (converted)
  TGI: 6.61 µM
HOP-92
  GI50: 2.04 µM
HOP-92; [5]
  CC50: > 100 µM
HOP-92; read-out: pTGI (converted)
  TGI: 5.25 µM
NCI-H226
  GI50: 1.58 µM
NCI-H226; read-out: pTGI (converted)
  TGI: 3.47 µM
NCI-H460
  GI50: 1.7 µM
NCI-H460; [5]
  CC50: 51.3 µM
NCI-H460; read-out: pTGI (converted)
  TGI: 4.47 µM
COLO 205
  GI50: 1.48 µM
COLO 205; [5]
  CC50: 33.9 µM
COLO 205; read-out: pTGI (converted)
  TGI: 4.17 µM
HCT-15
  GI50: 1.66 µM
HCT-15; [5]
  CC50: > 100 µM
HCT-15; read-out: pTGI (converted)
  TGI: 5.25 µM
SW-620; read-out: GI50
  GI50: 0.83 µM
SW-620; [6]
  CC50: > 100 µM
SW-620; read-out: pGI50 (converted)
  GI50: 0.832 µM
SW-620; [5]
  CC50: > 100 µM
SW-620; read-out: pTGI (converted)
  TGI: 12.9 µM
SF-539
  GI50: 1.78 µM
SF-539; [5]
  CC50: 7.76 µM
SF-539; read-out: pTGI (converted)
  TGI: 3.72 µM
SNB-19
  GI50: 2.29 µM
SNB-19; [5]
  CC50: 28.2 µM
SNB-19; read-out: pTGI (converted)
  TGI: 7.76 µM
LOX IMVI; read-out: pGI50 (converted)
  GI50: 1.51 µM
LOX IMVI; [5]
  CC50: 6.61 µM
LOX IMVI; read-out: pTGI (converted)
  TGI: 3.16 µM
MDA-MB-435
  GI50: 1.62 µM
MDA-MB-435; [5]
  CC50: 6.61 µM
MDA-MB-435; read-out: pTGI (converted)
  TGI: 3.24 µM
SK-MEL-2
  GI50: 1.95 µM
SK-MEL-2; [5]
  CC50: 7.41 µM
SK-MEL-2; read-out: pTGI (converted)
  TGI: 3.8 µM
SK-MEL-28
  GI50: 2.4 µM
SK-MEL-28; [5]
  CC50: > 100 µM
SK-MEL-28; read-out: pTGI (converted)
  TGI: 5.75 µM
IGROV-1
  GI50: 1.55 µM
IGROV-1; [5]
  CC50: > 100 µM
IGROV-1; read-out: pTGI (converted)
  TGI: 5.62 µM
OVCAR-4
  GI50: 2.4 µM
OVCAR-4; [5]
  CC50: > 100 µM
OVCAR-4; read-out: pTGI (converted)
  TGI: 7.94 µM
SK-OV-3
  GI50: 2.63 µM
SK-OV-3; [5]
  CC50: > 100 µM
SK-OV-3; read-out: pTGI (converted)
  TGI: 7.41 µM
A498
  GI50: 2.63 µM
A498; [5]
  CC50: 27.5 µM
A498; read-out: pTGI (converted)
  TGI: 6.61 µM
ACHN; read-out: GI50
  GI50: 0.89 µM
ACHN; [6]
  CC50: > 100 µM
ACHN; read-out: pGI50 (converted)
  GI50: 0.891 µM
ACHN; [5]
  CC50: > 100 µM
ACHN; read-out: pTGI (converted)
  TGI: 3.89 µM
Hs-578T
  GI50: 2.04 µM
Hs-578T; [5]
  CC50: > 100 µM
Hs-578T; read-out: pTGI (converted)
  TGI: 5.89 µM
T47D
  GI50: 2.51 µM
T47D; [5]
  CC50: > 100 µM
T47D; read-out: pTGI (converted)
  TGI: 8.32 µM
MDA-MB-468
  GI50: 1.82 µM
MDA-MB-468; [5]
  CC50: 7.94 µM
MDA-MB-468; read-out: pTGI (converted)
  TGI: 3.8 µM
K562 [2]
  inhibition of growth at 10 µM: 95%
UO-31
  inhibition of growth at 10 µM: 100%
HT-29
  inhibition of growth at 10 µM: 100%
[3]
  GI50: 0.3 µM
  TGI: 1.2 µM
[3]; [6]
  CC50: 38 µM
C6
  Activity: 85.53%
[4]
  Activity: Active

Reference: ChEMBL document CHEMBL4359904, “Structural tuning of acridones for developing anticancer agents targeting dihydrofolate reductase” (Bioorg Med Chem Lett, 2019)
